Results reported in US9957273B2, “5-substituted 7- [4-(2-pyridyl)phenylmethylamino] -3-isopropylpyrazolo4,3-D]pyrimidine derivatives, use thereof as medicaments, and pharmaceutical compositions” (USTAV EXPERIMENTALNI BOTANIKY AV CR, V.V.I., priority 2015, dated 2018).
Where two headings read alike, the source gives them in different places.

Legend:
CDK5/p35 = target: T1, CDK5/p35 (Homo sapiens, UniProt Q00535); experiment: CDK5/p35 kinase inhibition (33P-ATP, histone H1); type: biochemical; details: 0.15 μM ATP
T1 construct: purchased ProQinase GmbH
T1 sequence (Q00535 whole entry): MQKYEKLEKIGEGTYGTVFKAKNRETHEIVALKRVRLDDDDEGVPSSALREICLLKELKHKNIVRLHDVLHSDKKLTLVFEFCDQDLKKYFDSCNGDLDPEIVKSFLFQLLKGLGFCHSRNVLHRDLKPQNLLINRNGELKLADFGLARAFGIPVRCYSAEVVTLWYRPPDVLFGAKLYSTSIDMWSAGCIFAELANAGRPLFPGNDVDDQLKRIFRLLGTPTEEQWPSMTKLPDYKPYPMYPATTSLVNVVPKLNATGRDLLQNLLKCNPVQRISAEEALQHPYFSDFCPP
T1 sequence (Q15078 whole entry partner): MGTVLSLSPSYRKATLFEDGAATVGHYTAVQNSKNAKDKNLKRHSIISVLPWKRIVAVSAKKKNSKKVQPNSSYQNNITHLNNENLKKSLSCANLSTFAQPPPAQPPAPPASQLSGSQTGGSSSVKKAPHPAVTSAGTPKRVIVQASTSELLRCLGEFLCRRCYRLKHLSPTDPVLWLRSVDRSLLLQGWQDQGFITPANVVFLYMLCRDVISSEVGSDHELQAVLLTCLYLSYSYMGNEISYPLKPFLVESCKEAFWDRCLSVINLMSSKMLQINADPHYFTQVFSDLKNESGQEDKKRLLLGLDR
Description: CDK2/Cyclin E kinase was produced in Sf9 insect cells via baculoviral infection and purified on a NiNTA column (Qiagen). […] CDK5/p35 was purchased from ProQinase GmbH.
(§1) The reactions were stopped by adding 5 μL of 3% aq H3PO4. Aliquots were spotted onto P-81 phosphocellulose (Whatman), washed 3× with 0.5% aq H3PO4 and finally air-dried.

CDK2/Cyclin E = target: T2, CDK2/Cyclin E (Homo sapiens, UniProt P24941); experiment: CDK2/Cyclin E kinase inhibition (33P-ATP, histone H1); type: biochemical; details: 15 μM ATP
T2 construct: made in house; host or cells: Sf9 insect cells (baculovirus)
Description: CDK2/Cyclin E kinase was produced in Sf9 insect cells via baculoviral infection and purified on a NiNTA column (Qiagen). The kinase reactions were assayed with 1 mg/mL histone H1 in the presence of 15 μM ATP, 0.05 μCi [γ-^33P]ATP and of the test compound in a final volume of 10 μL, all in a reaction buffer (60 mM HEPES-NaOH, pH 7.5, 3 mM MgCl2, 3 mM MnCl2, 3 μM Na-orthovanadate, 1.2 mM DTT, 2.5 μg/50 μl PEG20.000). CDK5/p35 was purchased from ProQinase GmbH. The kinase reactions were assayed with 1 mg/mL histone H1 in the presence of 0.15 μM ATP, 0.05 μCi [γ-^33P]ATP and of the test compound in a final volume of 10 μL, all in a reaction buffer (60 mM HEPES-NaOH, pH 7.5, 3 mM MgCl2, 3 mM MnCl2, 3 μM Na-orthovanadate, 1.2 mM DTT, 2.5 μg/50 μl PEG20.000).
as §1

[1] = tested on: HUVECs (human umbilical vein endothelial cells); experiment: HUVEC proliferation assay (crystal violet); type: cell-based; details: 72 h, read-out: Inhibition of proliferation (EC50)
Description: To verify that novel compounds have anti-vascularisation properties, we analyzed their influence on the proliferation and migration of HUVECs. HUVECs (human umbilical vein endothelial cells) were purchased from Promocell (Heidelberg, Germany) and cultured in endothelial cell growth medium (ECGM, Promocell, Heidelberg, Germany) containing 10% FCS (Biochrom, Berlin, Germany). Experiments were performed using cells at passage 3.
For proliferation assay, 1.5×10^3 HUVECs were cultured for 24 h. Afterwards, cells were either left untreated or treated with novel compounds for 72 h. Proliferation assay was performed using crystal violet as described previously (Koltermann et al. 2007, Cell Mol. Life Sci. 64:1715-1722).

[2] = tested on: K562 (human chronic myelogenous leukaemia); experiment: MTT cytotoxicity assay, leukemic cell line K562; type: cell-based; details: three days
From the text: (§2) Cytotoxicity of the compounds is the major property determining their antileukemic efficacy in vivo. One of the parameters used, as the basis for cytotoxicity assays, is the metabolic activity of viable cells. For example, a microtiter assay, which uses (3-(4,5-dimethylthiazol-2-yl)-2,5-diphenyltetrazolium bromide (MTT), is widely used to quantitate cell proliferation and cytotoxicity. This assay is widely used in drug screening programs and in chemosensitivity testing. Because only metabolically active living cells reduce MTT to correspond purple formazan dye, these assays detect viable cells exclusively. The quantity of reduced MTT corresponds to the number of vital cells in the culture.
(§3) The compounds were assayed using the following leukemic cell lines: K562 (human chronic myelogenous leukaemia), HL60 (human promyelocytic leukaemia), CEM (human lymphoblastoid leukaemia), THP1 (human monocytic cell line), MV4; 11 (acute myelocytic leukemia). All cell lines were grown in RPMI medium supplemented with fetal bovine serum and L-glutamine and maintained at 37° C. in a humidified atmosphere with 5% CO2. For cytotoxicity assays, 2000-5000 cells were seeded into each well of 96 well plate, allowed to stabilize for at least 8 h and then tested compounds were added at various concentrations ranging from 100 to 0.01 μM in triplicates. After three days, MTT solution (5 mg/ml; Sigma, St. Louis, USA) was added to cells and medium was replaced with DMSO after five hours. The absorbance was measured at 620 nm by employing a microplate reader. MTT assays were repeated 3 times for each drug application and untreated cells were used as reference.

[3] = tested on: HL60 (human promyelocytic leukaemia); experiment: MTT cytotoxicity assay, leukemic cell line HL60; type: cell-based; details: three days
From the text: as §2, §3

[4] = tested on: THP1 (human monocytic cell line); experiment: MTT cytotoxicity assay, leukemic cell line THP1; type: cell-based; details: three days
From the text: as §2, §3

[5] = tested on: MV4;11 (acute myelocytic leukemia); experiment: MTT cytotoxicity assay, leukemic cell line MV4;11; type: cell-based; details: three days
From the text: as §2, §3

[6] = tested on: CEM (human lymphoblastoid leukaemia); experiment: MTT cytotoxicity assay, leukemic cell line CEM; type: cell-based; details: three days
From the text: as §2, §3

[7] = tested on: PANC-1 (pancreatic carcinoma); experiment: MTT cytotoxicity assay, solid cancer cell line PANC-1; type: cell-based; details: Homo sapiens, PANC-1, 72 h, three days
Description: as §3, with “following” for “following leukemic”, “G361 (malignant melanoma), MCF7 (breast adenocarcinoma), PLC/PRF/5 (liver hepatoma), PANC-1 (pancreatic carcinoma) and HCT116 (colon carcinoma).” for “K562 (human chronic myelogenous leukaemia), HL60 (human promyelocytic leukaemia), CEM (human lymphoblastoid leukaemia), THP1 (human monocytic cell line), MV4; 11 (acute myelocytic leukemia).”, “DMEM” for “RPMI”, “4000-10000” for “2000-5000”, “of a” for “of”, “16” for “8”

[8] = tested on: MCF7 (breast adenocarcinoma); experiment: MTT cytotoxicity assay, solid cancer cell line MCF7; type: cell-based; details: Homo sapiens, MCF7, 72 h, three days
Description: as §3, with “following” for “following leukemic”, “G361 (malignant melanoma), MCF7 (breast adenocarcinoma), PLC/PRF/5 (liver hepatoma), PANC-1 (pancreatic carcinoma) and HCT116 (colon carcinoma).” for “K562 (human chronic myelogenous leukaemia), HL60 (human promyelocytic leukaemia), CEM (human lymphoblastoid leukaemia), THP1 (human monocytic cell line), MV4; 11 (acute myelocytic leukemia).”, “DMEM” for “RPMI”, “4000-10000” for “2000-5000”, “of a” for “of”, “16” for “8”

HCT116 (colon carcinoma) = experiment: MTT cytotoxicity assay, solid cancer cell line HCT116; type: cell-based; details: Homo sapiens, HCT-116, 72 h, three days
Description: as §3, with “following” for “following leukemic”, “G361 (malignant melanoma), MCF7 (breast adenocarcinoma), PLC/PRF/5 (liver hepatoma), PANC-1 (pancreatic carcinoma) and HCT116 (colon carcinoma).” for “K562 (human chronic myelogenous leukaemia), HL60 (human promyelocytic leukaemia), CEM (human lymphoblastoid leukaemia), THP1 (human monocytic cell line), MV4; 11 (acute myelocytic leukemia).”, “DMEM” for “RPMI”, “4000-10000” for “2000-5000”, “of a” for “of”, “16” for “8”

[9] = tested on: PLC/PRF/5 (liver hepatoma); experiment: MTT cytotoxicity assay, solid cancer cell line PLC/PRF/5; type: cell-based; details: Homo sapiens, PLC-PRF-5, 72 h, three days
Description: as §3, with “following” for “following leukemic”, “G361 (malignant melanoma), MCF7 (breast adenocarcinoma), PLC/PRF/5 (liver hepatoma), PANC-1 (pancreatic carcinoma) and HCT116 (colon carcinoma).” for “K562 (human chronic myelogenous leukaemia), HL60 (human promyelocytic leukaemia), CEM (human lymphoblastoid leukaemia), THP1 (human monocytic cell line), MV4; 11 (acute myelocytic leukemia).”, “DMEM” for “RPMI”, “4000-10000” for “2000-5000”, “of a” for “of”, “16” for “8”

[10] = tested on: G361 (malignant melanoma); experiment: MTT cytotoxicity assay, solid cancer cell line G361; type: cell-based; details: Homo sapiens, G-361, 72 h, three days
Description: as §3, with “following” for “following leukemic”, “G361 (malignant melanoma), MCF7 (breast adenocarcinoma), PLC/PRF/5 (liver hepatoma), PANC-1 (pancreatic carcinoma) and HCT116 (colon carcinoma).” for “K562 (human chronic myelogenous leukaemia), HL60 (human promyelocytic leukaemia), CEM (human lymphoblastoid leukaemia), THP1 (human monocytic cell line), MV4; 11 (acute myelocytic leukemia).”, “DMEM” for “RPMI”, “4000-10000” for “2000-5000”, “of a” for “of”, “16” for “8”

SMILES | IC50 (CDK5/p35) [µM] | IC50 (CDK2/Cyclin E) [µM] | IC50 [7] [µM] | IC50 ([2]; Homo sapiens, K562, 72 h) [µM] | IC50 ([3]; Homo sapiens, HL-60, 72 h) [µM] | IC50 (HCT116 (colon carcinoma)) [µM] | IC50 ([4]; Homo sapiens, THP-1, 72 h) [µM] | IC50 [9] [µM] | IC50 ([5]; Homo sapiens, MV4-11, 72 h) [µM] | IC50 [10] [µM] | IC50 ([6]; Homo sapiens, 72 h) [µM] | further results
CC(C)c1n[nH]c2c(NCc3ccc(-c4ccccn4)cc3)nc(S(C)(=O)=O)nc12 [Compound 8, 3-Isopropyl-5-methylsulfonyl-7-[4-(2-pyridyl)benzyl]amino-1(2)H-pyrazolo[4,3-d]pyridine] |  |  |  |  |  |  |  |  |  |  |  | EC50 [1]: 0.569 µM
CC(C)c1n[nH]c2c(NCc3ccc(-c4ccccn4)cc3)nc(NCC(C)N3CC3)nc12 (stereo not shown) [Compound 57] |  |  |  |  |  |  |  |  |  |  |  | IC50 [2]: 0.44 µM; IC50 [3]: 0.32 µM; IC50 [4]: 0.29 µM; IC50 [5]: 0.53 µM; IC50 [6]: 0.27 µM
CCN(CC)CCNc1nc(NCc2ccc(-c3ccccn3)cc2)c2[nH]nc(C(C)C)c2n1 [Compound 50] |  |  |  |  |  |  |  |  |  |  |  | IC50 [2]: 0.18 µM; IC50 [3]: 0.14 µM; IC50 [4]: 0.08 µM; IC50 [5]: 0.17 µM; IC50 [6]: 0.11 µM
CSc1nc(NCc2ccc(-c3ccccn3)cc2)c2[nH]nc(C(C)C)c2n1 [Compound 5] | 0.229 |  | 0.65 | 0.78 | 0.86 | 1.3 | 0.32 | 0.7 | 0.6 | 0.24 | 0.94 | IC50 [8]: 0.81 µM; EC50 ([1]; Homo sapiens, HUVEC): 0.234 µM
CC(C)c1n[nH]c2c(NCc3ccc(-c4ccccn4)cc3)ncnc12 [Compound 2] | 0.183 |  | 0.46 |  | 0.92 | 1.2 | 0.56 | 0.97 | 0.47 | 0.78 | 0.8 | 

The next lines start with results.

IC50 (CDK5/p35) [µM] | IC50 (CDK2/Cyclin E) [µM] | SMILES | IC50 [7] [µM] | IC50 ([2]; Homo sapiens, K562, 72 h) [µM] | IC50 ([3]; Homo sapiens, HL-60, 72 h) [µM] | IC50 (HCT116 (colon carcinoma)) [µM] | IC50 ([4]; Homo sapiens, THP-1, 72 h) [µM] | IC50 [9] [µM] | IC50 ([5]; Homo sapiens, MV4-11, 72 h) [µM] | IC50 [10] [µM] | IC50 ([6]; Homo sapiens, 72 h) [µM] | further results
0.18 | 0.042 | CC(C)c1[nH]nc2c(NCc3ccc(-c4ccccn4)cc3)nc(N3CCCCC3)nc12 [Compound 14] |  |  |  |  |  |  |  |  |  | 
0.182 | 0.64 | CC(C)c1[nH]nc2c(NCc3ccc(-c4ccccn4)cc3)nc(NCCN3CCCC3)nc12 [Compound 55] |  |  |  |  |  |  |  |  |  | 
0.179 |  | CC(C)c1[nH]nc2c(NCc3ccc(-c4ccccn4)cc3)nc(N[C@H]3CC[C@H](N)CC3)nc12 [Compound 67] | 0.5 | 0.59 | 0.24 | 0.37 | 0.3 | 0.29 | 0.19 | 0.36 | 0.23 | IC50 [8]: 0.47 µM; EC50 ([1]; Homo sapiens, HUVEC): 0.069 µM
0.038 | 0.027 | CC(C)c1n[nH]c2c(NCc3ccc(-c4ccccn4)cc3)nc(NCCN)nc12 [Compound 40] |  | 0.34 | 0.22 |  | 0.11 |  | 0.25 |  | 0.14 | 
